Source: patent publication US9370523B2, “Method for diagnosing or prediagnosing a beta-amyloidopathy or an alpha-synucleopathy” (Immungenetics AG, priority 2010, dated 2016)

Test system: ABCC1 transporter
Test: Activation of the ABCC1 transporter

CCSc1ccc2c(c1)N(CCCN1CCN(C)CC1)c1ccccc1S2 [thiethylperazine, 2-(ethylthio)-10-[3-(4-methylpiperazin-1-yl)propyl]-10H-phenothiazine]
activation of the ABCC1 transporter, in words: particularly efficient activator of the ABCC1 transporter
